Data from patent publication US20230036854A1, “HETEROCYCLIC SPIRO-COMPOUNDS AS AM2 RECEPTOR INHIBITORS” (THE UNIVERSITY OF SHEFFIELD, priority 2018, published 2023).
Where no end group is shown, it is not given here.

Experiments:
[1] = tested on: human pancreatic cancer cells; settings: local injection directly into tumours, pancreatic cancer model; cited from earlier work
[2] = target: T1, AM2 receptor (1321N1 cells transfected with CALCRL+RAMP3) (Homo sapiens, UniProt O60896+Q16602); experiment: AM2 receptor inhibition, LANCE cAMP agonist-antagonist competition assay; format: cell-based; settings: inhibition of AM induced cAMP activation, read-out: AM2 D2 protocol: pIC50 (converted)
T1 construct: host or cells: 1321N1 cells
In short: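 1321N1 cells co-expressing CALCRL and RAMP3 (2500/well) were preincubated with compound for 30 min at room temperature, then stimulated with adrenomedullin at its EC50 dose for 15 min in HBSS/HEPES/BSA buffer, pH 7.4. cAMP was measured by LANCE TR-FRET and normalised to forskolin (100%) and vehicle (0%) controls.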

T1 sequence (Q16602 23-461): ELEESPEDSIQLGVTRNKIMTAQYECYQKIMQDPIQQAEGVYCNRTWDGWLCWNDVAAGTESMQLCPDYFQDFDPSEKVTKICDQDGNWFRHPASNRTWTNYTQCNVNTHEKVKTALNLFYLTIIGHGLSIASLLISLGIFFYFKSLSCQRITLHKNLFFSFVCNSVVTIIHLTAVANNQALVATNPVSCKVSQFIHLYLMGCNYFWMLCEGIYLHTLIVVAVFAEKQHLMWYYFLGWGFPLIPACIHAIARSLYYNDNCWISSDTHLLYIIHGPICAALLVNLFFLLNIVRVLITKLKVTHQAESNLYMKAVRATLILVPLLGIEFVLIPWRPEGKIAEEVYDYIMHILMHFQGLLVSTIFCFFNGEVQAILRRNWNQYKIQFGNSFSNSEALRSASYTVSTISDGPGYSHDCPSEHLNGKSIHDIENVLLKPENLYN
T1 sequence (O60896 24-148): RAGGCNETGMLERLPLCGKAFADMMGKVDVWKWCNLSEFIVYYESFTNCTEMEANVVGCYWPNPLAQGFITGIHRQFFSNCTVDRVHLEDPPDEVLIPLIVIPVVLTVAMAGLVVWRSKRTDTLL

IC50 [2] | Compound | tumour size compared to controls [1]
– | AM22-52: "the AM peptide antagonist (AM22-52)"; "peptide and antibody AM2 receptor inhibitors are known such as AM22-52" (TVQKLAHQIYQFTDKDKDNVAPRSKISPQGY; ends and bridges not checked; UniProt P35318 116-146, looked up, fragment) | reduced tumour size significantly
7.41 nM | CNCc1ccccc1CN(CC(=O)Nc1ccc2c(c1)C[C@@]1(C2)C(=O)Nc2ncccc21)C(=O)C1(C)CCN(C(=O)c2ncccn2)CC1 [Example 18, (R)-4-Methyl-N-(2-((methylamino)methyl)benzyl)-N-(2-oxo-2-((2′-oxo-1,1′,2′,3-tetrahydrospiro[indene-2,3′-pyrrolo[2,3-b]pyridin]-5-yl)amino)ethyl)-1-(pyrimidine-2-carbonyl)piperidine-4-carboxamide] | –
2.19 nM | CNCc1ccccc1CN(CC(=O)Nc1ccc2c(c1)C[C@@]1(C2)C(=O)Nc2ncccc21)C(=O)C1(C)CCN(Cc2ccncc2)CC1 [Example 50, (R)-4-Methyl-N-(2-((methylamino)methyl)benzyl)-N-(2-oxo-2-((2′-oxo-1,1′,2′,3-tetrahydrospiro[indene-2,3′-pyrrolo[2,3-b]pyridin]-5-yl)amino)ethyl)-1-(pyridin-4-ylmethyl)piperidine-4-carboxamide] | –
5.75 nM | CCC1(C(=O)N(CC(=O)Nc2ccc3c(c2)C[C@@]2(C3)C(=O)Nc3ncccc32)Cc2ccccc2CNC)CCN(C(=O)C2CCCC2)CC1 [Example 75, (R)-1-(Cyclopentanecarbonyl)-4-ethyl-N-(2-((methylamino)methyl)benzyl)-N-(2-oxo-2-((2′-oxo-1,1′,2′,3-tetrahydrospiro[indene-2,3′-pyrrolo[2,3-b]pyridin]-5-yl)amino)ethyl)piperidine-4-carboxamide] | –
